From US7514450B2, “Azabicyclic aryl derivatives” (NeuroSearch A/S, priority 2004, dated 2009)
Where a name gives a salt, the structure may show the parent alone.

Target: T1, α7-subtype of nicotinic receptors (Rattus norvegicus, UniProt Q05941)
T1 construct: Cerebral cortices from male Wistar rats (150-250 g) are homogenised; from tissue; host or cells: rat cerebral cortex membrane homogenate
Assay: In vitro inhibition of 3H-α-bungarotoxine binding in rat brain
Conditions: rat cerebral cortex homogenate; 3H-α-bungarotoxine 2 nM; 2 hours at 37° C

T1 sequence (Q05941 23-502): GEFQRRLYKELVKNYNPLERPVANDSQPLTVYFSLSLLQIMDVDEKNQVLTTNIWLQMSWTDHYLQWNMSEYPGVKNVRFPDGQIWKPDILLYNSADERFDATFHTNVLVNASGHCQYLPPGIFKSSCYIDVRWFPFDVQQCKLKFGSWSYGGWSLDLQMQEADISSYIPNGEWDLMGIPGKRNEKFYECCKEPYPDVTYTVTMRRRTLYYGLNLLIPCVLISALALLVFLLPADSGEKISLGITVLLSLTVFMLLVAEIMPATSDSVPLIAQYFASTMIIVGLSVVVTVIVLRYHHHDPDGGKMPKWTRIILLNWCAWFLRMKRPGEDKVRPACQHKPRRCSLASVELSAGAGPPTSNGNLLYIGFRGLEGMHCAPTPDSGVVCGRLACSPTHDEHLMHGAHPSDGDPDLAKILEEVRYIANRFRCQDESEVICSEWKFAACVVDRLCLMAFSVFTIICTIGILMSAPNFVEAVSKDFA

O=C(Nc1ccc(-c2ccc(C(=O)NC3CN4CCC3CC4)o2)cc1)c1ccccc1 (racemic) [Compound 1, (±)5-(4-Benzoylamino-phenyl)-furan-2-carboxylic acid(1-aza-bicyclo[2.2.2]oct-3-yl)-amide hydrochloric acid salt]
IC50: 80 nM
